This is an account of results in patent publication US6569633B1, “Modulation of the sulfonylurea receptor and calcium in adipocytes for treatment of obesity/diabetes” (Artecel Science, Inc., priority 1998, dated 2003).

One experiment deals with human adipocytes. Nature of the experiment: Intracellular Ca2+ ([Ca2+]i) by fura-2 fluorometry in isolated human adipocytes. The format is cell-based. On the procedure:
FIG. 2. Glibenclamide stimulation of [Ca^2+]i in isolated human adipocyte. [Ca^2+]i in isolated human adipocytes was determined fluorometrically as previously described (4,7). Briefly, the human adipocytes isolated as described above were incubated in DMEM medium overnight for cell recovery. Prior to [Ca^2+]i measurement, adipocytes were pre-incubated in serum-free medium for 2 hrs, rinsed with HBSS solution containing the following components in mM: NaCl 138, CaCl2 1.8, MgSO4 0.8, NaH2PO4 0.9, NaHCO3 4, glucose 20, glutamine 6, HEPES 20 and BSA 1%. Cells were then loaded with fura-2 acetoxymethyl ester (10 μM) in the same buffer for 45 min at 37° C. in the dark with continuous shaking. To remove extracellular dye, cells were rinsed with HBSS for 3 times and resuspended in this solution at a concentration of 2×10^5 cells/ml. [Ca^2+]i was measured using dual excitation (340 and 380 nm) and single emission (510 nm) fluorometry. Following the establishment of stable baseline, the response to glibenclamide (10 and 20 μM) was determined. Digitonin (25 μM) and Tris/EGTA (100 mM) were used to measure maximal and minimal fluorescence to calibrate the signals, and final [Ca^2+]i was then calculated by the equation of Grynkiewicz et al. (17). […] Glibenclamide (Glib) was added at time designated by the arrow. B. The dose-responsive effect of glibenclamide on [Ca^2+]i in human adipocytes. Glibenclamide was added at 10 and 20 µM at the indicated times. *p<0.05 vs. Control, **p<0.05 vs. 10 μM glibenclamide.
The functionality of the SUR1 receptor was determined with respect to calcium mobilization and small molecule effects. [Ca^2+]i response was measured fluorometrically in isolated human adipocytes using a standard method (2,16). Briefly, isolated human adipocytes were incubated in DMEM or any other suitable medium such as Ham's F-10, Modified Eagle's media plus 5-10% fetal calf serum overnight for cell recovery. Prior to [Ca^2+]i measurement, adipocytes were pre-incubated in serum-free medium for 2 hrs, rinsed with HBSS solution containing the following components in mM: NaCl 138, CaCl2 1.8, MgSO4 0.8, NaH2PO4 0.9, NaHCO3 4, glucose 20, glutamine 6, HEPES 20 and BSA 1%. Cells were then loaded with fura-2 acetoxymethyl ester (10 μM) in the same buffer for 30-60 min at 37° C. in dark with continuous shaking. To remove extracellular dye, cells were rinsed with HBSS for three times and resuspended in this solution at a concentration of 1-10×10^5 cells/ml. [Ca^2+]i was measured using dual excitation (340 and 380 nm) and single emission (510 nm) fluorometry. Following the establishment of stable baseline, the response to a SUR agonist such as glibenclamide (1-20 μM) can be determined. Digitonin (25 μM) and Tris/EGTA (100 mM) were used to measure maximal and minimal fluorescence to calibrate the signals, and final [Ca^2+]i was then calculated by a known method such as described in Grynkiewicz et al (17).
Correlation of lipolysis with flux of intracellular calcium ([Ca^2+]i) concentration is then performed. [Ca^2+]i is measured in primary adipocytes. For primary adipocytes, 3 ml of cells are resuspended in 6 ml of HBSS and fura-2/AM was loaded for 80 min at 37° C. Extracellular fura-2/AM is washed three times with HBSS by centrifugation. [Ca^2+]i levels are then measured fluorometrically in suspensions using dual excitation (340 and 380 nm)/single emission (510 nm) fluorometry and [Ca^2+]i is calculated by the computer in the fluorometer. As a control, after loading fura-2/AM cells are pretreated with nitrendipine (RBI, Natick, Mass.) (30 μM, final concentration) for 10 min at 37° C.

The subject of experiment [1] is FAS activity in human adipocytes. In words: Fatty acid synthase (FAS) activity in human adipocytes. The format is cell-based.
Experiment [2] relates to GPDH activity in human adipocytes. Nature of the experiment: GPDH activity in human adipocytes. The format is cell-based. The following applies: 10 μM glibenclamide plus 10 μM diazoxide. On the procedure: FIG. 3. The lipogenic effect of glibenclamide in human adipocytes. As an indicator of lipogenic stimulation, both FAS and GPDH activity were measured. A. Glibenclamide stimulation of FAS activity. Human adipocytes were treated with 10 μM glibenclamide alone, 10 μM glibenclamide plus 10 μM diazoxide or 10 μM glibenclamide plus 30 μM nitrendipine for 48 hr. FAS was measured as described (6, 14). *p<0.001 vs. Control. B. Glibenclamide stimulation of GPDH activity. Human adipocytes were treated with 10 μM glibenclamide or 10 μM glibenclamide plus 10 μM diazoxide for 48 hr. GPDH activity was measured as described (14). *p<0.01 vs. Control.
To study the role of adipocyte SUR1 in regulating lipogenesis, we treated human adipocyte with SUR1 agonist and antagonist using FAS and GPDH activities as lipogenic markers. Human adipocytes were incubated in 24-well plates with the treatments indicated for 48 hr. FAS and GPDH activities were determined spectrophotometrically in crude cytosolic extracts of human adipocytes by measuring the oxidation rate of NADPH or NADH respectively, as previously described (14). The protein correction was measured by a modified Bradford method using Coomassie Blue dye (Pierce, Rockford, Ill.).

For the next experiment, the system named is obese Zucker rats. The following applies: cited from earlier work.
Experiment [3] relates to hyperinsulinemic obese adults. The following applies: cited from earlier work.

Each structure is given as a SMILES string.

Regarding `CC1=NS(=O)(=O)c2cc(Cl)ccc2N1` [diazoxide], the “[Ca2+]i response to any dose of glibenclamide” value in the experiment on human adipocytes (in the presence of 5 μM diazoxide) and with human adipocytes (in the presence of 2-10 μM diazoxide) was “no detectable response” each time. Besides, the “fatty acid synthase activity” value is 7.08 ± 0.10 nmol/min/mg in experiment [1] (1 nM insulin and 5 μM diazoxide); 1.00±0.10 nmol/min/mg protein in experiment [1] (5 μM diazoxide and 2 μM glibenclamide); 1.21±0.31 nmol/min/mg protein in experiment [1] (5 μM diazoxide and 10 μM glibenclamide); 3.24±0.41 nmol/min/mg protein in experiment [1] (40 mM KCl in the presence of 5 μM diazoxide). In experiment [1] (10 μM glibenclamide plus 10 μM diazoxide, 48 hr), the “glibenclamide-caused increase in FAS activity” value is on record as “completely blocked”. Also, the “glibenclamide-induced increases in fatty acid synthase activity” value in experiment [1] (inclusion of 5 μM diazoxide) is given as “completely prevented”. Moreover, the “glibenclamide-stimulated increase in GPDH activity” value in experiment [2] is on record as “totally blocked”. In addition, the effect on obesity entry is listed as “antiobesity effect” in the experiment with obese Zucker rats and “significant antiobesity effect” in experiment [3].
